According to ChEMBL document CHEMBL4376834, “Discovery of 4H-Chromen-4-one Derivatives as a New Class of Selective Rho Kinase (ROCK) Inhibitors, which Showed Potent Activity in ex Vivo Diabetic Retinopathy Models” (J Med Chem, 2019):

Assays:
[1] = molecular target: Vascular endothelial growth factor receptor 2 (Homo sapiens, UniProt P35968); assay: Inhibition of human recombinant KDR (790 to end residues) using myelin basic protein as substrate after 40 mins by [gamma-33ATP] by radiometric scintillation counting analysis
[2] = molecular target: Serine/threonine-protein kinase PLK1 (Homo sapiens, UniProt P53350); assay: Inhibition of recombinant full-length human Plk1 using casein as substrate incubated for 40 mins in presence of [gamma33P]ATP by radiometric scintillation counting analysis
[3] = molecular target: Eukaryotic translation initiation factor 2-alpha kinase 1 (Homo sapiens, UniProt Q9BQI3); assay: Inhibition of human recombinant HRI (140 to end residues) using RSRSRSRSRSRSR as substrate after 120 mins by [gamma-33ATP] radiometric assay
[4] = molecular target: Aurora kinase B (Homo sapiens, UniProt Q96GD4); assay: Inhibition of recombinant full length human AURORA-B using AKRRRLSSLRA as substrate incubated for 40 mins in presence of [gamma-33P]ATP and 10 uM ATP by radiometric scintillation counting analysis
[5] = Inhibition of recombinant full-length human ATR/ATRIP M211T mutant using GST-cMyc-p53 as substrate incubated for 40 mins by fluorescence assay
[6] = molecular target: Hepatocyte growth factor receptor (Homo sapiens, UniProt P08581, D1228N); assay: Inhibition of recombinant human MET A1209G/V1290L/D1246N triple mutant (974 to end residues) using KKKGQEEEYVFIE as substrate incubated for 40 mins in presence of [gamma-33ATP by radiometric scintillation counting analysis
[7] = molecular target: Tyrosine-protein kinase ABL1 (Homo sapiens, UniProt P00519, Y253F); assay: Inhibition of human recombinant ABL1 Y253F mutant (27 to end residues) using EAIYAAPFAKKK as substrate incubated for 40 mins in presence of [gamma-33P]ATP by radiometric scintillation counting analysis
[8] = molecular target: Serine/threonine-protein kinase Nek1 (Homo sapiens, UniProt Q96PY6); assay: Inhibition of recombinant human NEK1 (1 to 505 residues) using RLGRDKYKTLRQI as substrate measured after 40 mins in presence of [gamma33P]ATP by radiometric scintillation counting analysis
[9] = molecular target: Serine/threonine-protein kinase PAK 1 (Homo sapiens, UniProt Q13153); assay: Inhibition of recombinant human PAK1 (150 to end residues) using RRRLSFAEPG as substrate measured after 40 mins in presence of [gamma33P]ATP by radiometric scintillation counting analysis
[10] = molecular target: Hepatocyte growth factor receptor (Homo sapiens, UniProt P08581, Y1230H); assay: Inhibition of recombinant human MET A1209G/V1290L/Y1248H triple mutant (974 to end residues) using KKKGQEEEYVFIE as substrate incubated for 40 mins in presence of [gamma-33ATP by radiometric scintillation counting analysis
[11] = molecular target: Tribbles homolog 2 (Homo sapiens, UniProt Q92519); assay: Inhibition of recombinant full-length human TRB2 using RRRFRPASPLRGP as substrate incubated for 120 mins in presence of [gamma33P]ATP by radiometric scintillation counting analysis
[12] = Inhibition of human PKA using Kemptide as substrate incubated for 40 mins in presence of [gamma-33P]ATP by radiometric scintillation counting analysis
[13] = molecular target: Serine/threonine-protein kinase Sgk3 (Homo sapiens, UniProt Q96BR1); assay: Inhibition of recombinant human SGK3 (119 to end residues) using GRPRTSSFAEGKK as substrate incubated for 40 mins in presence of [gamma33P]ATP by radiometric scintillation counting analysis
[14] = molecular target: Calcium/calmodulin-dependent protein kinase type 1D (Homo sapiens, UniProt Q8IU85); assay: Inhibition of recombinant full length human CaMK1delta using calmodulin as substrate incubated for 40 mins in presence of [gamma-33ATP] by radiometric scintillation counting analysis
[15] = molecular target: Serine/threonine-protein kinase 32C (Homo sapiens, UniProt Q86UX6); assay: Inhibition of recombinant human full length STK32C using casein as substrate incubated for 120 mins in presence of [gamma33P]ATP by radiometric scintillation counting analysis
[16] = molecular target: Protein-tyrosine kinase 6 (Homo sapiens, UniProt Q13882); assay: Inhibition of recombinant full length human BRK using poly(Glu, Tyr) 4:1 as substrate incubated for 40 mins in presence of [gamma-33ATP] by radiometric scintillation counting analysis
[17] = Protein binding in monkey plasma at 1 uM incubated incubated for 5 hrs under shaking conditions by LC-MS analysis; format: ADME, cell-free, Macaca mulatta; details: rhesus monkey, read-out: PPB (converted)
[18] = molecular target: Tau-tubulin kinase 2 (Homo sapiens, UniProt Q6IQ55); assay: Inhibition of recombinant human TTBK2 (1 to331 residues) using casein as substrate incubated for 40 mins in presence of [gamma33P]ATP by radiometric scintillation counting analysis
[19] = molecular target: Casein kinase I isoform delta (Homo sapiens, UniProt P48730); assay: Inhibition of recombinant human CK1delta (1 to 294 residues) using KRRRALS(p)VAS as substrate incubated for 40 mins in presence of [gamma-33ATP] by radiometric scintillation counting analysis
[20] = molecular target: Serine/threonine-protein kinase Nek11 (Homo sapiens, UniProt Q8NG66); assay: Inhibition of recombinant full length human NEK11 using myelin basic protein as substrate measured after 40 mins in presence of [gamma33P]ATP by radiometric scintillation counting analysis
[21] = molecular target: Dual specificity protein kinase TTK (Homo sapiens, UniProt P33981, S389A); assay: Inhibition of recombinant full-length human TTK S389A mutant using MBP as substrate incubated for 40 mins in presence of [gamma33P]ATP by radiometric scintillation counting analysis
[22] = molecular target: TGF-beta receptor type-1 (Homo sapiens, UniProt P36897, T204D); assay: Inhibition of recombinant human TGFBR1 T204D mutant (200 to end residues) using casein as substrate incubated for 40 mins in presence of [gamma33P]ATP by radiometric scintillation counting analysis
[23] = molecular target: Mitogen-activated protein kinase kinase kinase kinase 5 (Homo sapiens, UniProt Q9Y4K4); assay: Inhibition of recombinant full length human MAP4K5 using myelin basic protein as substrate incubated for 40 mins in presence of [gamma-33ATP by radiometric scintillation counting analysis
[24] = molecular target: Serine/threonine-protein kinase WNK3 (Homo sapiens, UniProt Q9BYP7); assay: Inhibition of recombinant human WNK3 (1 to 434 residues) using myelin basic protein as substrate incubated for 40 mins in presence of [gamma33P]ATP by radiometric scintillation counting analysis
[25] = molecular target: Leukocyte tyrosine kinase receptor (Homo sapiens, UniProt P29376); assay: Inhibition of recombinant human LTK (450 to end residues) using GEEPLYWSFPAKK as substrate after 40 mins in presence of [gamma-33ATP] by radiometric scintillation counting analysis
[26] = molecular target: Muscle, skeletal receptor tyrosine-protein kinase (Homo sapiens, UniProt O15146); assay: Inhibition of recombinant human MUSK (530 to end residues) using myelin basic protein as substrate measured after 40 mins in presence of [gamma33P]ATP by radiometric scintillation counting analysis

Eukaryotic translation initiation factor 2-alpha kinase 1, sequence (Q9BQI3 whole entry): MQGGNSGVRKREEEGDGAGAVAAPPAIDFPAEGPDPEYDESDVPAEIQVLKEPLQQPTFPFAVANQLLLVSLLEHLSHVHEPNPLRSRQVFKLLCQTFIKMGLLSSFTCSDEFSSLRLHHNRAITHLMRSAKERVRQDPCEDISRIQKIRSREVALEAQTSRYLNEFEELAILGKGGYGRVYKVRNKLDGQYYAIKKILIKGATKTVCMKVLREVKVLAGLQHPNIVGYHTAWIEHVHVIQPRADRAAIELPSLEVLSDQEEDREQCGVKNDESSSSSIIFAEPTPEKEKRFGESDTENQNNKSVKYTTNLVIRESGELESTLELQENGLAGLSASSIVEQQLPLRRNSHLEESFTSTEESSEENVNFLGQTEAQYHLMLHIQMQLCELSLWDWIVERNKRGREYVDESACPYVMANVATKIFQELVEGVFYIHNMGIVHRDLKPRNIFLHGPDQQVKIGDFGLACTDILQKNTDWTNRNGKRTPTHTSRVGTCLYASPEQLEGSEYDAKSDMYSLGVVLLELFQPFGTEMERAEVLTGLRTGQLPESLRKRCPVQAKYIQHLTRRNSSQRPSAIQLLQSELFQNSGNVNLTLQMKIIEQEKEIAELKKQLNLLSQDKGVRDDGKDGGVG
Protein-tyrosine kinase 6, sequence (Q13882 whole entry): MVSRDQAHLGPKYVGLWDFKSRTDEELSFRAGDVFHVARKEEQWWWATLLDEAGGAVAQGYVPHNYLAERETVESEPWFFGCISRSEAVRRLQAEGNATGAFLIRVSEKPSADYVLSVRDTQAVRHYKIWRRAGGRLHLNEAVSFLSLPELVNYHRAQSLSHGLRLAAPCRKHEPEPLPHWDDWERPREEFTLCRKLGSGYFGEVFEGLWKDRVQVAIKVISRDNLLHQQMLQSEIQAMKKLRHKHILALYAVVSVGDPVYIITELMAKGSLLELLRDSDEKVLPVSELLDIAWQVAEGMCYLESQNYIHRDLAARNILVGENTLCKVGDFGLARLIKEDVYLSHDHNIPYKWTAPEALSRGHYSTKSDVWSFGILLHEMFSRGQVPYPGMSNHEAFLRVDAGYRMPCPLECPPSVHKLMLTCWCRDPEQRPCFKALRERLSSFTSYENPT
Hepatocyte growth factor receptor (Homo sapiens, UniProt P08581, D1228N), sequence (P08581 25-1390 D1228N limits assumed): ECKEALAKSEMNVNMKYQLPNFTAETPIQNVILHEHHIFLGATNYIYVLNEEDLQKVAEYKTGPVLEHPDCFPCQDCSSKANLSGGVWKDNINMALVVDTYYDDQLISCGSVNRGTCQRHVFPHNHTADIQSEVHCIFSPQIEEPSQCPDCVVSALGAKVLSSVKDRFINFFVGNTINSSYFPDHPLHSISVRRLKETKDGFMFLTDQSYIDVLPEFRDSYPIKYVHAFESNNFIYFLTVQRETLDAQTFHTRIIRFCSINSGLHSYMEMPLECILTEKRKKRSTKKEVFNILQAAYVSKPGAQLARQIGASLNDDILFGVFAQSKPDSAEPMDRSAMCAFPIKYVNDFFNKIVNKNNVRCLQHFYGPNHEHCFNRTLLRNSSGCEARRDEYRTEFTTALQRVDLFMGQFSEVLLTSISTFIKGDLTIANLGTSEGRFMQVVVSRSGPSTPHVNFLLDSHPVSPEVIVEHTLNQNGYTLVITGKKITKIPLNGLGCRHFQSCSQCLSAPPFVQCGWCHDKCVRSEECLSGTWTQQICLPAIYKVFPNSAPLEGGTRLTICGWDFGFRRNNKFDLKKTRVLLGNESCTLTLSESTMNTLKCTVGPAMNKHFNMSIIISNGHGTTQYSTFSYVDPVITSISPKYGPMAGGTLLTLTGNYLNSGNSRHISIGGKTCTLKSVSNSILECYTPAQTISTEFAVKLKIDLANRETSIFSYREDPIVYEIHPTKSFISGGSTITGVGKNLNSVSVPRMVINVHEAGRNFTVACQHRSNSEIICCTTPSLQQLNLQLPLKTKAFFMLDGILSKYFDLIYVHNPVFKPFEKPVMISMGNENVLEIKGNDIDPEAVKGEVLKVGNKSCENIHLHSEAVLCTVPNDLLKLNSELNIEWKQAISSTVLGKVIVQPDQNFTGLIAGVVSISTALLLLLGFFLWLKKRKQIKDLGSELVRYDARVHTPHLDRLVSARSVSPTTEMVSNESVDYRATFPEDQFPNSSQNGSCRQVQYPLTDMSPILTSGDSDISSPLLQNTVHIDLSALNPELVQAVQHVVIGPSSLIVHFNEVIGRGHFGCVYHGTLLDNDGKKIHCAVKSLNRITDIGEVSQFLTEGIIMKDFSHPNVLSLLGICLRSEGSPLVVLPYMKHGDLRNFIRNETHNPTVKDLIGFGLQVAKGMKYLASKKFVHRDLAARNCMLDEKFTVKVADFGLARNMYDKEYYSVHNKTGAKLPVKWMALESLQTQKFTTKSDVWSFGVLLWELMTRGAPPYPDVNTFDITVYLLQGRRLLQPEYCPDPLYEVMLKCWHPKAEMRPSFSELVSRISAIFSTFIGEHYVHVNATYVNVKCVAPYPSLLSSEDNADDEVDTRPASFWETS
Dual specificity protein kinase TTK, sequence (P33981 whole entry S389A): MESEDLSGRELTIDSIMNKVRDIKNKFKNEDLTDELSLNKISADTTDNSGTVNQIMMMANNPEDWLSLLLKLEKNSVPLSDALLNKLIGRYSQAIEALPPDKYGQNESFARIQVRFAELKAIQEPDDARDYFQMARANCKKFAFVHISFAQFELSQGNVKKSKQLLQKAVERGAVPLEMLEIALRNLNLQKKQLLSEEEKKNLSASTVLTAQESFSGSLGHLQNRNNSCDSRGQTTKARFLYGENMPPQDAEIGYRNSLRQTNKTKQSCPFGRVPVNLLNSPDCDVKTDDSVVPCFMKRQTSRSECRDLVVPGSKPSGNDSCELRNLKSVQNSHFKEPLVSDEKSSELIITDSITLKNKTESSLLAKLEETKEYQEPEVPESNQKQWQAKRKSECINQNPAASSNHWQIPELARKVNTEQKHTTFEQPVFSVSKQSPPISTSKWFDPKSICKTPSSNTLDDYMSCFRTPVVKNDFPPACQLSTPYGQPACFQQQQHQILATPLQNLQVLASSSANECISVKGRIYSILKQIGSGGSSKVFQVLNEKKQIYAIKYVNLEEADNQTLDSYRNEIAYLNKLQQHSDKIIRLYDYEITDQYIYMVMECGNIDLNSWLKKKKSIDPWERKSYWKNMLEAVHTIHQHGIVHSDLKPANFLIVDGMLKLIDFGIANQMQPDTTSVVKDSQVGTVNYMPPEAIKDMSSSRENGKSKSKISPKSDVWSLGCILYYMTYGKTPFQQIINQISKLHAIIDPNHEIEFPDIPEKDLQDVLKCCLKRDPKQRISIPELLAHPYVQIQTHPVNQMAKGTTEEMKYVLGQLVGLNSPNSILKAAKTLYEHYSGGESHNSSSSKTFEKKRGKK
Vascular endothelial growth factor receptor 2, sequence (P35968 whole entry): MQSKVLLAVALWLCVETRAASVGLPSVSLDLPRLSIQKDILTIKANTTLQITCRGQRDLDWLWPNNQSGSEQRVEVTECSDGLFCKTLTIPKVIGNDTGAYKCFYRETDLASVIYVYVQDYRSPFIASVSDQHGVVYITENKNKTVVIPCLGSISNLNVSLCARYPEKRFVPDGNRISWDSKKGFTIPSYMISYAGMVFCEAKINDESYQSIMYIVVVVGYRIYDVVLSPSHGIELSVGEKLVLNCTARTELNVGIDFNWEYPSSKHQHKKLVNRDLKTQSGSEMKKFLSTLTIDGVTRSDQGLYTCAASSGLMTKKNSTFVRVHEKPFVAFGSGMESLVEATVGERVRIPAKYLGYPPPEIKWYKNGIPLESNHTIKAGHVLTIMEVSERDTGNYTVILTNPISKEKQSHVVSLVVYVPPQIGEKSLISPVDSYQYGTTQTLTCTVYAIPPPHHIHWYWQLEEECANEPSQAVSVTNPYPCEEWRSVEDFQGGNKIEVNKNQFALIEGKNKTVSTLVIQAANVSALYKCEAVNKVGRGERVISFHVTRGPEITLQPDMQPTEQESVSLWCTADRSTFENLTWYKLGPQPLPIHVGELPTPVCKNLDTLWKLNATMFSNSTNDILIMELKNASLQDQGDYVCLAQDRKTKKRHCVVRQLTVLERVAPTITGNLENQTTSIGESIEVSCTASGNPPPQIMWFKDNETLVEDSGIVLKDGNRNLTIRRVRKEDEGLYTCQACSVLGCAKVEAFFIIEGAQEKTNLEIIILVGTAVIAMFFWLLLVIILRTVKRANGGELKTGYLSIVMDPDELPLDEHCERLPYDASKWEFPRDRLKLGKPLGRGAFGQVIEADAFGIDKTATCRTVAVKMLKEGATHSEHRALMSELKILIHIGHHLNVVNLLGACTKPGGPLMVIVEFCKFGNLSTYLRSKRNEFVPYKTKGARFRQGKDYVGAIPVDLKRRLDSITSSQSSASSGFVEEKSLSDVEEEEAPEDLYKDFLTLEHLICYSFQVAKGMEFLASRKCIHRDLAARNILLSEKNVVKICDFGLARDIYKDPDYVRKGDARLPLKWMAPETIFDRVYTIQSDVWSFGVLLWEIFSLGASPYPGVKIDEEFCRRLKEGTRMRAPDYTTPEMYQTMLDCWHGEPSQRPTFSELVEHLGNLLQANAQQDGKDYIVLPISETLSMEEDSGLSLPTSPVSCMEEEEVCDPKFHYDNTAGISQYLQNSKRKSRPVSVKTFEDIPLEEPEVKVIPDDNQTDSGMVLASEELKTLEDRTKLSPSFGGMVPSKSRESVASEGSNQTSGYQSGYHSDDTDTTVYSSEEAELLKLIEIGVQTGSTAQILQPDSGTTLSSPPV
Calcium/calmodulin-dependent protein kinase type 1D, sequence (Q8IU85 whole entry): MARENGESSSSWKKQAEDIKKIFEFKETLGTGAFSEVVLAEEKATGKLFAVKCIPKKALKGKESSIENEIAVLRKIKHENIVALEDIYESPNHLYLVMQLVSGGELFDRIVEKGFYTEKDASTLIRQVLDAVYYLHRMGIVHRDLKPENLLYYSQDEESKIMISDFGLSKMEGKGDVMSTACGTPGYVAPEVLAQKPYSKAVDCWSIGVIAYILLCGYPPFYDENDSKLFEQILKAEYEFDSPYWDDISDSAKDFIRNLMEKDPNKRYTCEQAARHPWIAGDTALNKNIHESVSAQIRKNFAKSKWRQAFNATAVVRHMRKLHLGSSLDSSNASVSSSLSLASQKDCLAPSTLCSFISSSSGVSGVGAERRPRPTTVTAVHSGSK

SMILES: CN(C)c1ccc(C(=O)Nc2cccc(NC(=O)COc3ccc4c(=O)ccoc4c3)c2)cc1
- IC50 [1]: > 10 µM
- IC50 [2]: > 10 µM
- IC50 [3]: > 10 µM
- IC50 [4]: 1240 nM
- IC50 [5]: > 10 µM
- IC50 [6]: > 10 µM
- IC50 [7]: > 10 µM
- IC50 [8]: > 10 µM
- IC50 [9]: > 10 µM
- IC50 [10]: > 10 µM
- IC50 [11]: > 10 µM
- IC50 [12]: > 10 µM
- IC50 [13]: > 10 µM
- IC50 [14]: > 10 µM
- IC50 [15]: > 10 µM
- IC50 [16]: > 10 µM
- fraction unbound at 5 h, 1 µM [17]: 0.002
- IC50 [18]: > 10 µM
- IC50 [19]: > 10 µM
- IC50 [20]: > 10 µM
- IC50 [21]: > 10 µM
- IC50 [22]: > 10 µM
- IC50 [23]: > 10 µM
- IC50 [24]: > 10 µM
- IC50 [25]: > 10 µM
- IC50 [26]: > 10 µM
